The text below walks through data of patent US6350839B2, “Hydrolysis-stable and polymerizable acrylophosphonic acid monoesters” (Ivoclar Vivadent AG, priority 2000, dated 2002).

Common to all, as to format: physicochemical
The nature of data set [1]: Solubility of monomer in water and ethanol. The procedure:
(§1) The solubility of monomer 1 in water and ethanol was determined and the pH value of a 20% solution of the monomer in a 1:1 mixture of ethanol and water measured.

The nature of data set [2]: pH value (acid strength) of a 20% monomer solution. The conditions noted are these: text: 1:1 mixture of ethanol and water. The procedure:
as §1

The nature of data set [3]: Hydrolytic stability by weekly 1H-NMR of stored solution. The conditions noted are these: 20% solution in 1:1 water/ethanol, stored at 37° C., 8-week investigation period. The procedure: Monomer 1 is dissolved in a 1:1 mixture of water and ethanol and a 20% solution is stored at 37° C. The ^1H-NMR spectrum of the solution is recorded weekly.
The mark [4] stands for this setting: water, read-out: water solubility.

Converted amounts (≈) assume the structure as drawn. Where two headings read alike, the source gives them in different places. A value given as a limit tells only on which side of the number the result lay.

With `C=C(COCCP(=O)(O)O)C(=O)O` [Comparison monomer, 2-[4-dihydroxyphosphoryl-2-oxa-butyl]-acrylic acid, reference compound], the solubility in ethanol entry in data set [1] (ethanol) is on record as “practically insoluble”. Moreover, the solubility in data set [1] (setting [4]) was ~400 mg/mL (≈ 1900 mM). In addition, the “pH value of a 20% solution” value in data set [2] stood at 1.25.

On to `C=C(COCCP(=O)(O)OC)C(=O)O` [Monomer 1, 2-[4-hydroxymethoxyphosphoryl-2-oxa-butyl]-acrylic acid], for which the solubility in data set [1] (ethanol, organic solvent or mixture, read-out: solubility in ethanol) was > 500 mg/mL; in data set [1] (setting [4]), > 500 mg/mL. The “hydrolytic stability (change in 1H-NMR spectrum)” value in data set [3] is recorded as “no change in the spectrum”. The “pH value of a 20% solution” value in data set [2] came to 0.61.

As a reminder, the solubility is how much of the substance goes into solution per volume.
